From article PMC11462456 (Chemical Science, 2024)

How the values were obtained:
[1] = system: BRD2, BRD3, and BRD4 proteins; assay: Western blot BET protein degradation in HEK293 cells (screen, washout kinetics, proteasome rescue); assay type: cell-based, human; details: 4 h, 0.1 μM and 1 μM
Description: 4. Biological experiments
Primary antibodies used for western blotting included anti-human BRD2(1:2000, rabbit monoclonal, Abcam, ab139690), anti-human BRD3 (1:1000, rabbit monoclonal, Abcam, ab264420), anti-human BRD4 (E2A7X) (1:1000, rabbit monoclonal, Cell Signaling Technology, #13440), anti-human VHL (1:1000, rabbit polyclonal, Cell Signaling Technology, #68547), anti-human CRBN (D8H3S) (1:1000, rabbit polyclonal, Cell Signaling Technology, #71810), anti-human alpha Tubulin, clone B-5-1-2 (1:5000, mouse monoclonal, Merck Life Science, # 32-2500).Secondary antibodies used for western blot included: anti-mouse horseradish peroxidase-linked antibody (1:3000, sheep, GE Healthcare Life Sciences, #NA931V), and anti-rabbit horseradish peroxidase-linked antibody (1:8000, donkey, GE Healthcare Life Sciences, #NA934V). Reagent for degradation assay and compounds […]
dr. Serge Van Calenbergh, Ghent University).
4.2 Cell lines and culture […]
General method of Western blot: Lysates were sonicated and centrifuged at 4 °C at 20000 g for 15 min, and the supernatants were transferred to new tubes. Protein concentration of cell lysates was measured using the DC Protein Assay kit (BIO-RAD) following manufacturer's instructions. […]
Figure S1 Dual-ligand PROTACs induce target protein degradation in A549 cells. […] Subsequently, cells were lysed and BRD2, BRD3 and BRD4 protein levels were measured by Western blot. […]

[2] = Mouse serum stability by HPLC-MS/MS; assay type: in vitro ADME; details: after 2 hours of incubation, 37°C
Method: Figure S7. Dual-ligand PROTACs inhibit cancer cell growth in 2D and 3D in vitro cell cultures.
(A) 2D-cultured SKOV-3 were treated with an escalating dose of PROTACs for 48h. Cell viability was assessed by CellTiter-Glo 2D assay. EC50 values were calculated from fitted curves. (B) HCT116 spheroids were treated with an escalating dose of PROTACs for 72h (equivalent volume of DMSO as control group). Representative transmitted microscopy images at the dose of 10nM. (C) Cell viability was assessed by Cell Titer-Glo 3D assay. Both experiments were performed as three independent replicates. (D) 2D-cultured A549 cells were treated with an escalating dose of PROTACs equipped with similar linker length as dual-ligand PROTACs. Cell viability was assessed by CellTiter-Glo 2D assay.
EC50 values were calculated from fitted curves.
Eurofins Panlabs, 6 Research Park Dr. St. Charles, MO 63304, U.S.A. Compounds were incubated in the mouse serum at 37°C for certain time, and at 0, 0.5, 1, 1.5, 2 hours post incubation, the mouse serum was analyzed by HPLC-MS/MS according to the reference: Di, L. et al. (2005), Int. J. Pharm., 297 (1-2): 110-119. […] Samples were analyzed by HPLC-MS/MS and peak areas were recorded for each analyte. The area of precursor compound remaining after each of the time points relative to the amount remaining at time zero, expressed as percent, is calculated. […]

BRD2, BRD3 and BRD4 = assay: Mass spectrometry proteomics in A549 cells; assay type: cell-based, human; details: 10 nM, 4 hours, 7592 proteins quantified
Method: A549 cells in DMEM medium were seeded at 1×10^6 cells on a 6-well plate 24 h before […]
volume of DMSO. After 4 h, the cells were digested by trypsin, centrifuged at 250g for 5min and washed three times with PBS. Cells were resuspended in lysis buffer (50 mM triethylammonium bicarbonate (TEAB), 5% SDS (pH 7.5)), then sonicated, and clarified with centrifugation of 13,000g for 8 minutes. Each sample was reduced with 20 mM DTT, then warmed the solution first at 95 °C for 10 minutes and then at 60 °C for 1 hour. The reduced proteins were alkylated with 40 mM iodoacetamide (IAA) in the dark for 30 minutes. Then samples were acidified with 1.2% aqueous phosphoric acid and mixed with 6× volumes of 90% methanol, 100 mM TEAB, pH 7.1 (S-Trap binding buffer). The samples were loaded onto the (1 picture or pasted object on this page, not shown here)

Row | SMILES | degradation efficiency versus single- and trivalent PROTACs [1] | compound remained intact in mouse serum [2] [%] | BET protein abundance change in proteome (BRD2, BRD3 and BRD4)
1 | Cc1sc2c(c1C)C(c1ccc(Cl)cc1)=N[C@@H](CC(=O)NCCOCCOCCNC(=O)C[C@H](NC(=O)COCCOCCOCCOCCn1cc(CCC(=O)N[C@@H](CC(=O)NCCOCCOCCNc3cccc4c3C(=O)N(C3CCC(=O)NC3=O)C4=O)C(=O)NCCOCCOCCNc3cccc4c3C(=O)N(C3CCC(=O)NC3=O)C4=O)nn1)C(=O)NCCOCCOCCNC(=O)C[C@@H]1N=C(c3ccc(Cl)cc3)c3c(sc(C)c3C)-n3c(C)nnc31)c1nnc(C)n1-2 (stereo partly drawn) [2J2P] | superior degradation efficiency |  | 
2 | Cc1ncsc1-c1ccc(C(C)NC(=O)C2CC(O)CN2C(=O)C(NC(=O)COCCOCCNC(=O)CC(NC(=O)CCc2cn(CCOCCOCCOCCOCC(=O)NC(CC(=O)NCCOCCOCCNC(=O)CC3N=C(c4ccc(Cl)cc4)c4c(sc(C)c4C)-n4c(C)nnc43)C(=O)NCCOCCOCCNC(=O)CC3N=C(c4ccc(Cl)cc4)c4c(sc(C)c4C)-n4c(C)nnc43)nn2)C(=O)NCCOCCOCC(=O)NC(C(=O)N2CC(O)CC2C(=O)NC(C)c2ccc(-c3scnc3C)cc2)C(C)(C)C)C(C)(C)C)cc1 (stereo not drawn) [2J2V] | superior degradation efficiency | 88 | top proteins being degraded the most
3 | Cc1ncsc1-c1ccc(CNC(=O)C2CC(O)CN2C(=O)C(NC(=O)COCCOCCOCCNC(=O)CC2N=C(c3ccc(Cl)cc3)c3c(sc(C)c3C)-n3c(C)nnc32)C(C)(C)C)cc1 (stereo not drawn) [MZ1, reference compound] |  | 95 | much lower change in BET protein abundance
